In ChEMBL document CHEMBL3885861, “Open TG-GATES”:

Organism: Rattus norvegicus
Experiment: Open TG-GATES - Regimen: Single
Format: toxicity, organism-based, Sprague-Dawley
Set-up: regimen Single, gender Male, age 6 weeks
Details: in vivo, po, 0 mg/kg, route gavage, dose level Control; for APTT / Bas / Eos / Fbg / Hb / Ht / Lym / MCH / MCHC / MCV / Mono / Neu / PT / RBC / Ret / WBC / Plat: tissue Blood; for KIDNEY_L / KIDNEY_R / KIDNEY_TOTAL: tissue Kidney; for LIVER: tissue Liver; for ALP / ALT / AST / BUN / CRE / Ca / DBIL / GLC / IP / K / LDH / Na / PL / RALB / TBIL / TC / TG / TP / gamma-GTP: tissue Plasma

## CSc1ccc2c(c1)N(CCC1CCCCN1C)c1ccccc1S2 (configuration not stated) [THIORIDAZINE]
3 h
  TERMINAL_BW: 216.6 g
  APTT: 16 s
  Bas: 0%
  Eos: 0.6%
  Fbg: 206.6 mg/dL
  Hb: 12.9 g/dL
  Ht: 38.9%
  Lym: 82.2%
  MCH: 21.8 pg
  MCHC: 33.2%
  MCV: 65.7 fL
  Mono: 7.4%
  Neu: 10%
  PT: 12.1 s
  RBC: 592 x10_4/ul
  Ret: 8.6%
  WBC: 109.6 x10_2/uL
  KIDNEY_L: 1 g
  KIDNEY_R: 1 g
  KIDNEY_TOTAL: 2 g
  LIVER: 10.6 g
  ALP: 789.2 IU/L
  ALT: 37.2 IU/L
  AST: 71 IU/L
  BUN: 12.4 mg/dL
  CRE: 0.5 mg/dL
  Ca: 11.4 mg/dL
  DBIL: 0.006 mg/dL
  GLC: 197.6 mg/dL
  IP: 10.1 mg/dL
  K: 5 meq/L
  LDH: 94.4 IU/L
  Na: 137.4 meq/L
  PL: 136.2 mg/dL
  RALB: 3.8 g/dL
  TBIL: 0.3 mg/dL
  TC: 72.2 mg/dL
  TG: 93.4 mg/dL
  TP: 5.5 g/dL
  gamma-GTP: 0.8 IU/L
6 h
  TERMINAL_BW: 212.3 g
  APTT: 16.3 s
  Bas: 0%
  Eos: 1%
  Fbg: 216.8 mg/dL
  Hb: 13.7 g/dL
  Ht: 40.9%
  Lym: 74%
  MCH: 21.5 pg
  MCHC: 33.3%
  MCV: 64.4 fL
  Mono: 8.2%
  Neu: 17.2%
  PT: 12.1 s
  Plat: 98.4 x10_4/uL
  RBC: 635.6 x10_4/ul
  Ret: 7.7%
  WBC: 117.4 x10_2/uL
  KIDNEY_L: 0.9 g
  KIDNEY_R: 1 g
  KIDNEY_TOTAL: 1.9 g
  LIVER: 9.5 g
  ALP: 834 IU/L
  ALT: 28 IU/L
  AST: 60.4 IU/L
  BUN: 12.4 mg/dL
  CRE: 0.5 mg/dL
  Ca: 10.9 mg/dL
  DBIL: 0.016 mg/dL
  GLC: 189 mg/dL
  IP: 10.1 mg/dL
  K: 5 meq/L
  LDH: 100.4 IU/L
  Na: 137.4 meq/L
  PL: 147 mg/dL
  RALB: 3.8 g/dL
  TBIL: 0.4 mg/dL
  TC: 80.2 mg/dL
  TG: 84.4 mg/dL
  TP: 5.5 g/dL
  gamma-GTP: 2 IU/L
9 h
  TERMINAL_BW: 210.2 g
  APTT: 16.6 s
  Bas: 0%
  Eos: 1.2%
  Fbg: 221.4 mg/dL
  Hb: 13.4 g/dL
  Ht: 40.6%
  Lym: 73.2%
  MCH: 21.6 pg
  MCHC: 33.1%
  MCV: 65.4 fL
  Mono: 8.4%
  Neu: 17.2%
  PT: 12.2 s
  Plat: 111.7 x10_4/uL
  RBC: 620.6 x10_4/ul
  Ret: 7.6%
  WBC: 117.1 x10_2/uL
  KIDNEY_L: 0.9 g
  KIDNEY_R: 1 g
  KIDNEY_TOTAL: 1.9 g
  LIVER: 8.7 g
  ALP: 724 IU/L
  ALT: 30.6 IU/L
  AST: 67.4 IU/L
  BUN: 12.2 mg/dL
  CRE: 0.5 mg/dL
  Ca: 11.1 mg/dL
  DBIL: 0.034 mg/dL
  GLC: 197.6 mg/dL
  IP: 10.7 mg/dL
  K: 4.9 meq/L
  LDH: 63 IU/L
  Na: 139.6 meq/L
  PL: 147.4 mg/dL
  RALB: 4 g/dL
  TBIL: 0.3 mg/dL
  TC: 87.6 mg/dL
  TG: 35.8 mg/dL
  TP: 5.6 g/dL
  gamma-GTP: 1.2 IU/L
24 h
  TERMINAL_BW: 232.2 g
  APTT: 15.8 s
  Bas: 0%
  Eos: 0.8%
  Fbg: 225 mg/dL
  Hb: 13.2 g/dL
  Ht: 38.9%
  Lym: 73%
  MCH: 22 pg
  MCHC: 33.9%
  MCV: 64.9 fL
  Mono: 9.4%
  Neu: 16.8%
  PT: 12.2 s
  Plat: 107.1 x10_4/uL
  RBC: 600.2 x10_4/ul
  Ret: 8.3%
  WBC: 127.4 x10_2/uL
  KIDNEY_L: 1 g
  KIDNEY_R: 1 g
  KIDNEY_TOTAL: 2 g
  LIVER: 11.4 g
  ALP: 895 IU/L
  ALT: 36 IU/L
  AST: 65.2 IU/L
  BUN: 18.4 mg/dL
  CRE: 0.5 mg/dL
  Ca: 11 mg/dL
  DBIL: 0.016 mg/dL
  GLC: 193.4 mg/dL
  IP: 8.1 mg/dL
  K: 5.1 meq/L
  LDH: 73 IU/L
  Na: 138.4 meq/L
  PL: 150.8 mg/dL
  RALB: 3.9 g/dL
  TBIL: 0.3 mg/dL
  TC: 81.6 mg/dL
  TG: 87.8 mg/dL
  TP: 5.7 g/dL
